Measurements taken from patent publication US6342516B1, “Phenylazole compounds, process for producing the same and drugs for hyperlipemia” (Nippon Soda Co., Ltd., priority 1998, dated 2002).

Legend:
cholesterol-fed hamsters = assay: Effect on serum lipids of cholesterol-fed hamsters (serum total cholesterol and triglyceride reduction rate); type: in vivo; settings: cholesterol-fed Syrian hamsters, oral once a day for 5 days, dose 25 mg/kg
Protocol: Pharmacological Test Example 1: Effect on serum lipids of cholesterol-fed hamsters
Syrian hamsters (Std:Syrian, Male, 4 weeks old) were freely fed with chow containing 1% cholesterol and 10% coconut oil for 3 weeks ad libitum.
At the last week of feeding, each of the test compounds was dissolved or suspended in either 0.1% hydrochloric acid solution or 1% polyethylene-hydrogenated castor oil (NIKKOL HCO-60) solution and was orally administrated to hamsters once a day for 5 days. For the hamsters of the control group, only the solvent was orally administered. Then, blood was collected from the abdominal vein under the condition of anesthesia with pentobarbital at 2-4 hours after the last administration, and the serum in the blood was separated. The serum total cholesterol value and the serum triglyceride value were determined by using autobiochemical analyzer with analizing kits, and reduction rate of the serum lipids was determined according to the equation indicated below based on the analyzed values for respective hamster groups.
Serum lipids reduction rate (%)=(Amount of serum lipids of the control group−Amount of serum lipids of the group administrated with the test compound)/Amount of serum lipids of the control group×100

[1] = test system: Lipid peroxidation activity in rat liver microsome; assay: Effect on lipid peroxidation in vitro (rat liver microsome, thiobarbituric acid method); type: biochemical; settings: rat liver microsomes, 500 μM cystein and 5 μM ferrous(II) sulfate, malonaldehyde by thiobarbituric acid method; read-out: Lipid Antiperoxidation Activity 50% Inhibition Concentration (IC50)
Protocol: Pharmacological Test Example 2: Effect on lipid peroxidation in vitro
Lipid peroxidation activity in rat liver microsome was determined according to the method of Malvy et al. (Malvy et al., Biochemical and Biophysical Research Communications, 95, 734-737 (1980)). More particularly, 500 μM cystein and 5 μM ferrous(II) sulfate were incubated with rat liver microsomes, and the amount of malonaldehyde produced due to the decomposition of lipid peroxide was determined according to thiobarbituric acid method. The concentration of the compounds required to inhibit the formation of lipid peroxide by 50% (IC50) was calculated.

[2] = test system: carbon tetrachloride induced liver damage model in rats; assay: Carbon tetrachloride induced liver damage model in rats (lipid peroxide in liver; serum GOT, GPT); type: in vivo, rats (SD-strain, male); settings: for Antioxidation Activity of Lipid: Mass of lipid peroxide / Antioxidation Activity of Lipid: Prevention Rate: liver at 24 hours; for Preventive Activity on Liver Disorder: GOT / Preventive Activity on Liver Disorder: GOT Prevention Rate / Preventive Activity on Liver Disorder: GPT / Preventive Activity on Liver Disorder: GPT Prevention Rate: serum
Protocol: Pharmacological Test Example 3: Effect on lipid peroxidation […] Effect of the compounds of the present invention on the produced lipid peroxide in liver was examined on carbon tetrachloride induced liver damage model in rats. Briefly, providing 5 SD-strain male rats (6 weeks old) for each group, carbon tetrachloride at the rate of 1 ml/kg or 2 ml/kg (0.5 ml/kg or 1 ml/kg based on carbon tetrachloride) was orally administered to the rats together with the equivalent dose of olive oil. At 24 hours after the administration of carbon tetrachloride, their livers were excised, and the produced amount of lipid peroxide in liver was determined by thiobarbituric acid method according to Uchiyama's method (Uchiyama, M., et al., Analytical biochemistry, 86, 271-278 (1978)). In parallel, as the indicator for liver disorder due to carbon tetrachloride, serum enzyme activity (GOT, GPT) was measured. Then each of the test compounds, which was either dissolved or suspended in either 0.1% hydrochloric acid solution or olive oil, was orally administered to the rats 3 times at 1 before and, 3 and 6 hours after the administration of carbon tetrachloride. For the rats of normal group and control groups, the solvent was orally administered. Based on the measured values for each groups, the inhibitory rate of producing peroxidized lipids and the inhibitory rate of causing liver disorder were calculated according to the following equation. Inhibitory rate of producing lipid peroxide (%)=[1−(Produced amount of lipid peroxide in the test compound group−Produced amount of lipid peroxide in the normal rat group)/(Produced amount of lipid peroxide in the control group−Produced amount of lipid peroxide in the normal rat group)]×100 Liver disorder preventing rate (%)=[1−(GOT amount of GPT amount in the test compound group−GOT amount or GPT amount in the normal rat group)/(GOT amount or GPT amount in the control group−GOT amount or GPT amount in the normal rat group)]×100 The results are presented in Table 8.

rats (male SD-strain) = settings: rat, in vivo, 100 mg/kg/day
Protocol: Pharmacological Test Example 4: Repeated Oral Administration Toxicity
The Compound with No. 3-1 was suspended in 1% polyethylene-hardened castor oil (NIKKOL HCO-60) solution, and the suspension was orally administered to rats (male SD-strain), 6 rats per group, at a rate of 100 mg/kg/day for 7 days.

[3] = CCl4: 0.5 ml/kg, dose 100 mg/kg oral 3 times
[4] = CCl4: 1 ml/kg, dose 10 mg/kg oral 3 times

Structure (SMILES)	Serum lipids reduction rate comparing to Control group (%), Means of 3 animals: Total cholesterol (cholesterol-fed hamsters)	Serum lipids reduction rate comparing to Control group (%), Means of 3 animals: Triglyceride (cholesterol-fed hamsters)	IC50 [1]	Antioxidation Activity of Lipid: Mass of lipid peroxide [2, 3]	Antioxidation Activity of Lipid: Prevention Rate [2, 3]	Preventive Activity on Liver Disorder: GOT [2, 3]	Preventive Activity on Liver Disorder: GOT Prevention Rate [2, 3]	Preventive Activity on Liver Disorder: GPT [2, 3]	Preventive Activity on Liver Disorder: GPT Prevention Rate [2, 3]	Repeated oral administration toxicity (death, toxicological symptoms) (rats (male SD-strain))	Antioxidation Activity of Lipid: Mass of lipid peroxide [2, 4]	Antioxidation Activity of Lipid: Prevention Rate [2, 4]	Preventive Activity on Liver Disorder: GOT [2, 4]	Preventive Activity on Liver Disorder: GOT Prevention Rate [2, 4]	Preventive Activity on Liver Disorder: GPT [2, 4]	Preventive Activity on Liver Disorder: GPT Prevention Rate [2, 4]
Cc1c(C)c2c(c(C)c1O)CCC(C)(C(=O)Nc1ccc(-n3ccnc3)cc1)O2 (racemic) [Compound No. 3-1, (±)-(6-Hydroxy-2,5,7,8-tetramethylchroman-2-yl)-N-[4-(imidazol-1-yl)phenyl]carboxamide]	40%	62%	2700 nM	2.361 A535nm/g lever	96%	137 IU/L	100%	61 IU/L	86%	neither death nor any toxicological symptoms were observed						
CC1=C(C)C(=O)C(C(CCCc2ccccc2)CCC(=O)Nc2ccc(-n3ccnc3)cc2)=C(C)C1=O (stereo not shown) [Compound No. 3-28, N-[4-(imidazol-1-yl)phenyl]-7-phenyl-4-(3,5,6-trimethyl-1,4-benzoquinon-2-yl)heptanamide]	29%	23%	3300 nM								5.781 A535nm/g lever	61%	269 IU/L	76%	82 IU/L	82%
